Laboratory results reported in patent publication US8426408B2, “Pyrimidine inhibitors of kinases” (AbbVie Inc., priority 2009, dated 2013).

Experiments:
Format in all cases: biochemical
Aurora A = molecular target: T1, Aurora A (Homo sapiens, UniProt O14965); experiment: Aurora A enzyme inhibition (time-resolved fluorescence, STK substrate-2); conditions: 1 mM ATP
T1 sequence (O14965 1-403): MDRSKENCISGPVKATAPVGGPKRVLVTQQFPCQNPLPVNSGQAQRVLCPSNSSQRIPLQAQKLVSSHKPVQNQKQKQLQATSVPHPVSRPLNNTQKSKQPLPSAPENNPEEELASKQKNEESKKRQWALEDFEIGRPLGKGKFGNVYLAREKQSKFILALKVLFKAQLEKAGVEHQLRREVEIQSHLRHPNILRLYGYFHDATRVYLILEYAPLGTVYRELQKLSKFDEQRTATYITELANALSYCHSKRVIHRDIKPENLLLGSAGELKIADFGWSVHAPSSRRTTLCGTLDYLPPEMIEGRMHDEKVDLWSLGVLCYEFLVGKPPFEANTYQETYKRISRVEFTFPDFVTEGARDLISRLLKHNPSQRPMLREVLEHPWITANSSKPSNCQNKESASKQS
Method in brief: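 Phosphorylation of biotinylated STK substrate-2 at 1 mM ATP, 1 h, Hepes buffer pH 7.4 (MgCl2, sodium orthovanadate, Triton X-100). After EDTA quench, 665/615 nm time-resolved fluorescence ratio read via europium anti-phospho antibody and SA-XL665; IC50 from exponential fit versus inhibitor concentration.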

KDR = KDR (Homo sapiens, UniProt P35968); experiment: KDR HTRF in vitro kinase assay; design: purified enzyme (His6-KDR 789-1354, MW 63 kD); His6 (N); conditions: 1 mM ATP; read-out: KDR enzyme inhibition data (Ki)
Method in brief: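 His6-KDR 789-1354 (7 ng/well) with 0.5 μM biotinylated peptide substrate and 1 mM ATP in HEPES pH 7.1, MgCl2/MnCl2, 60 min at room temperature. EDTA-quenched, detected by streptavidin-XL-665 plus Eu-kryptate anti-phosphotyrosine HTRF after 3 h; IC50 from 620/665 nm ratio.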

Aurora B = molecular target: T2, Aurora B (Homo sapiens, UniProt Q96GD4); experiment: Aurora B enzyme inhibition (time-resolved fluorescence, histone H3 peptide); conditions: 1 mM ATP
T2 construct: Active Aurora B enzyme (recombinant residues 1-344)
Method in brief: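 IC50s came from an exponential fit of inhibition against inhibitor concentration, with phosphorylation read as the 665/615 nm time-resolved fluorescence ratio after EDTA stop using Eu-anti-phospho-H3 and SA-APC. The 1 h reaction used Aurora B 1-344 plus GST-INCENP, biotin-histone H3 1-21 peptide and 1 mM ATP in pH 7.4 HEPES buffer.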

T2 sequence (Q96GD4 whole entry, the tested form may be a part): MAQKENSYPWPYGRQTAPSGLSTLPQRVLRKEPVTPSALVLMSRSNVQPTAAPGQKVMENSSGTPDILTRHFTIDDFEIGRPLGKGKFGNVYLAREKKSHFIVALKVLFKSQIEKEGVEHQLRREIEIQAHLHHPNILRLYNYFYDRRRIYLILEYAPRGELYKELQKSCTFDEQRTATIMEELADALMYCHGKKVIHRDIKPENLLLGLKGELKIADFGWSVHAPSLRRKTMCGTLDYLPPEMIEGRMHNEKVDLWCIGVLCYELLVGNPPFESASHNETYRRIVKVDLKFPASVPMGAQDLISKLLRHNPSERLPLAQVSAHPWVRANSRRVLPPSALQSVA
T2 sequence (Q9NQS7 826-918 partner limits assumed): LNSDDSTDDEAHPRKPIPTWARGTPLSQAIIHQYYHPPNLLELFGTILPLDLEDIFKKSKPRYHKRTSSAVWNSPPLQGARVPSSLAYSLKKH
Sequence of KDR (P35968 789-1354): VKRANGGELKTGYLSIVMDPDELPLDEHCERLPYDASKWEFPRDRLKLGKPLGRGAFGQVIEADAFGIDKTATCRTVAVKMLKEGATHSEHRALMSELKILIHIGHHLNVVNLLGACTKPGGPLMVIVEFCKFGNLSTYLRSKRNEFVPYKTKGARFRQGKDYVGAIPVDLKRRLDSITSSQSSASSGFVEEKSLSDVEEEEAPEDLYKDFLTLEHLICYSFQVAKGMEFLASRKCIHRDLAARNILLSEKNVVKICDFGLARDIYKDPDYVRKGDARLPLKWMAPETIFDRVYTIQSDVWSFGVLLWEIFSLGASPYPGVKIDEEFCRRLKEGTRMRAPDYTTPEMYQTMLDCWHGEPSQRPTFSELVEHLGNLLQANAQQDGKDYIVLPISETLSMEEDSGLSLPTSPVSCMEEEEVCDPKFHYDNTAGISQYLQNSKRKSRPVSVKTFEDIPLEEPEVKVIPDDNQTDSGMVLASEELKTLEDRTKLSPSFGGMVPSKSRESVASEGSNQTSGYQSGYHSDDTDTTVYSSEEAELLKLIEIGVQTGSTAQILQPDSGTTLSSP

Compound	Ki (Aurora A) [nM]	Ki (KDR) [nM]	Ki (Aurora B) [nM]
CN1CCC(Cn2cc(Nc3ncc(Cl)c(N[C@H]4[C@@H](C(N)=O)[C@@H]5C=C[C@H]4C5)n3)cn2)CC1 [Example 97, (1S,2S,3R,4R)-3-{[5-chloro-2-({1-[(1-methylpiperidin-4-yl)methyl]-1H-pyrazol-4-yl}amino)pyrimidin-4-yl]amino}bicyclo[2.2.1]hept-5-ene-2-carboxamide]	< 100	< 100	< 100
NC(=O)[C@@H]1[C@H](Nc2nc(Nc3cnn(Cc4cccc(Cl)c4)c3)ncc2Cl)[C@H]2C=C[C@@H]1C2 [Example 157, (1S,2S,3R,4R)-3-[(5-chloro-2-{[1-(3-chlorobenzyl)-1H-pyrazol-4-yl]amino}pyrimidin-4-yl)amino]bicyclo[2.2.1]hept-5-ene-2-carboxamide]	< 100	< 100	< 100
Cn1cc(Nc2ncc(Cl)c(N[C@@H]3[C@H](C(N)=O)[C@H]4CC[C@@H]3O4)n2)cn1.Cn1cc(Nc2ncc(Cl)c(N[C@H]3[C@@H](C(N)=O)[C@@H]4CC[C@H]3O4)n2)cn1 (mixture of isomers) [Example 141, (1S,2R,3S,4R)-3-({5-chloro-2-[(1-methyl-1H-pyrazol-4-yl)amino]pyrimidin-4-yl}amino)-7-oxabicyclo[2.2.1]heptane-2-carboxamide and (1R,2S,3R,4S)-3-({5-chloro-2-[(1-methyl-1H-pyrazol-4-yl)amino]pyrimidin-4-yl}amino)-7-oxabicyclo[2.2.1]heptane-2-carboxamide]	< 100	< 100	< 100
Cc1c(Nc2ncc(Cl)c(N[C@H]3[C@@H](C(N)=O)[C@@H]4C=C[C@H]3C4)n2)cnn1C [Example 169, (1S,2S,3R,4R)-3-({5-chloro-2-[(1,5-dimethyl-1H-pyrazol-4-yl)amino]pyrimidin-4-yl}amino)bicyclo[2.2.1]hept-5-ene-2-carboxamide]	< 100	< 100	< 100
CCn1cc(Nc2ncc(Cl)c(N[C@H]3[C@@H](C(N)=O)[C@@H]4C=C[C@H]3C4)n2)cn1 (racemic) [Example 30, (1S,2S,3R,4R)-3-({5-chloro-2-[(1-ethyl-1H-pyrazol-4-yl)amino]pyrimidin-4-yl}amino)bicyclo[2.2.1]hept-5-ene-2-carboxamide and (1R,2R,3S,4S)-3-({5-chloro-2-[(1-ethyl-1H-pyrazol-4-yl)amino]pyrimidin-4-yl}amino)bicyclo[2.2.1]hept-5-ene-2-carboxamide]	< 100	< 100	< 100
NC(=O)[C@@H]1[C@H](Nc2nc(Nc3cnn([C@H]4CCOC4)c3)ncc2Br)[C@H]2C=C[C@@H]1C2 [Example 117, (1S,2S,3R,4R)-3-{[5-bromo-2-({1-[(3S)-tetrahydrofuran-3-yl]-1H-pyrazol-4-yl}amino)pyrimidin-4-yl]amino}bicyclo[2.2.1]hept-5-ene-2-carboxamide]	< 100	< 100	< 100
NC(=O)[C@@H]1[C@H](Nc2nc(Nc3cnn(Cc4ccc(Cl)cc4)c3)ncc2Br)[C@H]2C=C[C@@H]1C2 [Example 172, (1S,2S,3R,4R)-3-[(5-bromo-2-{[1-(4-chlorobenzyl)-1H-pyrazol-4-yl]amino}pyrimidin-4-yl)amino]bicyclo[2.2.1]hept-5-ene-2-carboxamide]	< 100	< 100	< 100
CC(O)Cn1cc(Nc2ncc(C(F)(F)F)c(NC3C4CCC(C4)C3C(N)=O)n2)cn1 (mixture of isomers) [Example 21, (1S,2R,3S,4R)-3-{[2-({1-[(2R)-2-hydroxypropyl]-1H-pyrazol-4-yl}amino)-5-(trifluoromethyl)pyrimidin-4-yl]amino}bicyclo[2.2.1]heptane-2-carboxamide and (1R,2S,3R,4S)-3-{[2-({1-[(2R)-2-hydroxypropyl]-1H-pyrazol-4-yl}amino)-5-(trifluoromethyl)pyrimidin-4-yl]amino}bicyclo[2.2.1]heptane-2-carboxamide]	< 100	100 to 1000	100 to 1000
NC(=O)[C@@H]1CCC[C@@H]1Nc1nc(Nc2cnn(C3CCNCC3)c2)ncc1Cl.NC(=O)[C@H]1CCC[C@H]1Nc1nc(Nc2cnn(C3CCNCC3)c2)ncc1Cl (mixture of isomers) [Example 136, (1S,2R)-2-[(5-chloro-2-{[1-(piperidin-4-yl)-1H-pyrazol-4-yl]amino}pyrimidin-4-yl)amino]cyclopentanecarboxamide and (1R,2S)-2-[(5-chloro-2-{[1-(piperidin-4-yl)-1H-pyrazol-4-yl]amino}pyrimidin-4-yl)amino]cyclopentanecarboxamide]	< 100	100 to 1000	< 100
CCn1cc(Nc2ncc(Cl)c(N[C@@H]3[C@H](C(N)=O)[C@@H]4C=C[C@H]3C4)n2)cn1.CCn1cc(Nc2ncc(Cl)c(N[C@H]3[C@@H](C(N)=O)[C@H]4C=C[C@@H]3C4)n2)cn1 (mixture of isomers) [Example 121, (1S,2R,3S,4R)-3-({5-chloro-2-[(1-ethyl-1H-pyrazol-4-yl)amino]pyrimidin-4-yl}amino)bicyclo[2.2.1]hept-5-ene-2-carboxamide and (1R,2S,3R,4S)-3-({5-chloro-2-[(1-ethyl-1H-pyrazol-4-yl)amino]pyrimidin-4-yl}amino)bicyclo[2.2.1]hept-5-ene-2-carboxamide]	< 100	< 100	< 100
COc1cccc(CCn2cc(Nc3ncc(Cl)c(N[C@H]4[C@@H](C(N)=O)[C@@H]5C=C[C@H]4C5)n3)cn2)c1 [Example 154, (1S,2S,3R,4R)-3-{[5-chloro-2-({1-[2-(3-methoxyphenyl)ethyl]-1H-pyrazol-4-yl}amino)pyrimidin-4-yl]amino}bicyclo[2.2.1]hept-5-ene-2-carboxamide]	< 100	< 100	< 100
Cn1cc(Nc2ncc(Cl)c(N[C@@H]3[C@@H]4CC[C@@H](C4)[C@@H]3C(N)=O)n2)cn1.Cn1cc(Nc2ncc(Cl)c(N[C@H]3[C@H]4CC[C@H](C4)[C@H]3C(N)=O)n2)cn1 (mixture of isomers) [Example 113, (1R,2R,3S,4S)-3-({5-chloro-2-[(1-methyl-1H-pyrazol-4-yl)amino]pyrimidin-4-yl}amino)bicyclo[2.2.1]heptane-2-carboxamide and (1S,2S,3R,4R)-3-({5-chloro-2-[(1-methyl-1H-pyrazol-4-yl)amino]pyrimidin-4-yl}amino)bicyclo[2.2.1]heptane-2-carboxamide]	< 100	< 100	< 100
Cn1cc(Nc2ncc(Cl)c(Nc3ccccc3C3(O)CCC3)n2)cn1 [Example 101, 1-[2-({5-chloro-2-[(1-methyl-1H-pyrazol-4-yl)amino]pyrimidin-4-yl}amino)phenyl]cyclobutanol]	< 100	< 100	< 100
CS(=O)(=O)CCn1cc(Nc2ncc(Cl)c(N[C@H]3[C@@H](C(N)=O)[C@@H]4C=C[C@H]3C4)n2)cn1 [Example 119, (1S,2S,3R,4R)-3-{[5-chloro-2-({1-[2-(methylsulfonyl)ethyl]-1H-pyrazol-4-yl}amino)pyrimidin-4-yl]amino}bicyclo[2.2.1]hept-5-ene-2-carboxamide]	< 100	< 100	< 100
C[C@@H](O)Cn1cc(Nc2ncc(Cl)c(N[C@@H]3[C@H]4CC[C@H](C4)[C@@H]3C(N)=O)n2)cn1 [Example 104, (1R,2S,3R,4S)-3-{[5-chloro-2-({1-[(2R)-2-hydroxypropyl]-1H-pyrazol-4-yl}amino)pyrimidin-4-yl]amino}bicyclo[2.2.1]heptane-2-carboxamide]	< 100	< 100	< 100
NC(=O)[C@@H]1[C@H](Nc2nc(Nc3cnn(CCc4ccccc4)c3)ncc2Br)[C@H]2C=C[C@@H]1C2 [Example 148, (1S,2S,3R,4R)-3-[(5-bromo-2-{[1-(2-phenylethyl)-1H-pyrazol-4-yl]amino}pyrimidin-4-yl)amino]bicyclo[2.2.1]hept-5-ene-2-carboxamide]	< 100	< 100	< 100
CN(C)CC(=O)N1CCC(n2cc(Nc3ncc(Cl)c(N[C@H]4[C@@H](C(N)=O)[C@@H]5C=C[C@H]4C5)n3)cn2)CC1 [Example 89, (1S,2S,3R,4R)-3-{[5-chloro-2-({1-[1-(N,N-dimethylglycyl)piperidin-4-yl]-1H-pyrazol-4-yl}amino)pyrimidin-4-yl]amino}bicyclo[2.2.1]hept-5-ene-2-carboxamide]	< 100	< 100	< 100
